According to ChEMBL document CHEMBL3779873, “Rubrolide analogues and their derived lactams as potential anticancer agents” (Medchemcomm, 2016):

Key:
[1] = Cytotoxicity against human SF295 cells assessed as reduction in cell viability at 25 ug/mL after 72 hrs by MTT assay; assay type: functional, SF-295
[2] = Cytotoxicity against human OVCAR8 cells assessed as reduction in cell viability at 25 ug/mL after 72 hrs by MTT assay; assay type: functional, OVCAR-8
[3] = Cytotoxicity against human HCT116 cells assessed as reduction in cell viability at 25 ug/mL after 72 hrs by MTT assay; assay type: functional, HCT-116
[4] = Cytotoxicity against human SF295 cells after 72 hrs by MTT assay; assay type: functional, SF-295
[5] = Cytotoxicity against human HCT116 cells after 72 hrs by MTT assay; assay type: functional, HCT-116
[6] = Cytotoxicity against human OVCAR8 cells after 72 hrs by MTT assay; assay type: functional, OVCAR-8
[7] = Cytotoxicity against human HL60 cells after 72 hrs by MTT assay; assay type: functional, HL-60

| Compound | Activity [1] [%] | Activity [2] [%] | Activity [3] [%] | RC50 [4] [µM] | RC50 [5] [µM] | RC50 [6] [µM] | RC50 [7] [µM] |
| --- | --- | --- | --- | --- | --- | --- | --- |
| COc1ccc(Br)cc1-c1c(Cc2ccc(F)cc2)n[nH]c(=O)c1Br | 48.14 | 29.08 | 59.8 |  |  |  |  |
| COc1ccc(C)cc1C1=C(Br)C(=O)N(CC(C)C)/C1=C/c1ccccc1Cl | 6.91 | 34.8 | 19.23 |  |  |  |  |
| COc1ccccc1C1=C(Br)C(=O)N(CC(C)C)/C1=C\c1ccc(C(F)(F)F)cc1 | 51.01 | 47.91 | 79.09 |  |  |  |  |
| COc1ccc(Cl)cc1C1=C(Br)C(=O)O/C1=C\c1ccc(F)cc1 | 84.72 | 32.6 | 55.49 |  |  |  |  |
| CC(C)CN1C(=O)C(Cl)=C(Cl)C1(O)Cc1ccc(Br)cc1 (stereo not given) | 42.06 | 13.42 | 49.89 |  |  |  |  |
| CCCN1C(=O)C(Cl)=C(Cl)/C1=C\c1ccc(F)cc1 | 97.74 | 99.07 | 64.83 |  |  |  |  |
| COc1ccc(Br)cc1C1=C(Br)C(=O)N(CC(C)C)/C1=C/c1cccc(Cl)c1 | 90.65 | 93.39 | 93.44 | 8.03 | 5.52 | 4.18 | 3.46 |
| COc1ccc(Br)cc1C1=C(Br)C(=O)O/C1=C\c1ccccc1Cl | 49.4 | 57.61 | 74.4 |  |  |  |  |
| COc1ccc(C)cc1C1=C(Br)C(=O)N(CC(C)C)C1(O)Cc1ccccc1Cl (stereo not given) | 63.57 | 44.39 | 78.5 |  |  |  |  |
| COc1ccc(Br)cc1C1=C(Br)C(=O)N(CC(C)C)/C1=C\c1ccc(Br)cc1 | 30.25 | 25.49 | 44.22 |  |  |  |  |
| COc1ccccc1C1=C(Br)C(=O)N(CC(C)C)C1(O)Cc1ccc(C(F)(F)F)cc1 (stereo not given) | 67.94 | 21.61 | 78.84 |  |  |  |  |
| COc1ccc(Br)cc1C1=C(Br)C(=O)N(CC(C)C)/C1=C\c1cccc(Cl)c1 | 72.36 | 52.15 | 86.98 |  |  |  |  |
| COc1ccc(Br)cc1C1=C(Br)C(=O)O/C1=C\c1ccc(F)cc1 | 82.06 | 94.68 | 94.87 | 15.44 | 13.06 | 5.17 | 9.8 |
| O=C1O/C(=C\c2ccc(C(F)(F)F)cc2)C(Cl)=C1Cl | 92.21 | 98.2 | 76.92 |  |  |  |  |
| COc1cccc(/C=C2\C(c3cc(Cl)ccc3OC)=C(Br)C(=O)N2CC(C)C)c1 | 79.36 | 55.28 | 75.51 |  |  |  |  |
| COc1cccc(Cc2n[nH]c(=O)c(Br)c2-c2cc(Br)ccc2OC)c1 | 30.95 | 10.69 | 10.78 |  |  |  |  |
| COc1ccc(Br)cc1-c1c(Cc2ccc(C(F)(F)F)cc2)n[nH]c(=O)c1Br | 74.92 | 46.18 | 98.03 |  |  |  |  |
| COc1ccc(Cl)cc1-c1c(Cc2ccc(F)cc2)n[nH]c(=O)c1Br | 18.95 | 42.17 | 14.71 |  |  |  |  |
| COc1ccc(Cl)cc1C1=C(Br)C(=O)O/C1=C\c1ccc(C(F)(F)F)cc1 | 80.1 | 96.84 | 91.81 | 14.12 | 12.66 | 7.51 | 5.5 |
| COc1ccc(C)cc1C1=C(Br)C(=O)O/C1=C\c1ccccc1Cl | 2.02 | 26.18 | 35.84 |  |  |  |  |
| CC(C)CN1C(=O)C(Cl)=C(Cl)/C1=C\c1ccc(Br)cc1 | 58.59 | 52.94 | 57.48 |  |  |  |  |

| Compound | Activity [1] [%] | Activity [2] [%] | Activity [3] [%] | RC50 [4] [µM] | RC50 [5] [µM] | RC50 [6] [µM] | RC50 [7] [µM] |
| --- | --- | --- | --- | --- | --- | --- | --- |
| COc1ccc(Cl)cc1C1=C(Br)C(=O)O/C1=C\c1ccc([N+](=O)[O-])cc1 | 82.86 | 53.71 | 92.2 |  |  |  |  |
| COc1ccc(Br)cc1-c1c(Cc2ccccc2Cl)n[nH]c(=O)c1Br | 47.29 | 27.93 | 38.1 |  |  |  |  |
| COc1cccc(CC2(O)C(c3cc(Cl)ccc3OC)=C(Br)C(=O)N2CC(C)C)c1 (stereo not given) | 69.2 | 27 | 67.25 |  |  |  |  |
| COc1ccc(Br)cc1C1=C(Br)C(=O)N(CC(C)C)/C1=C/c1ccc(Br)cc1 | 53.77 | 90.66 | 97.98 |  |  |  |  |
| O=C1O/C(=C\c2ccc(F)cc2)C(Cl)=C1Cl | 68.44 | 98.99 | 97.68 |  |  |  |  |
| COc1ccc(Br)cc1C1=C(Br)C(=O)N(CC(C)C)C1(O)Cc1ccc(Br)cc1 (stereo not given) | 56.18 | 32.1 | 82.39 |  |  |  |  |
| COc1ccc(Br)cc1C1=C(Br)C(=O)O/C1=C\c1ccc(Br)cc1 | 75.68 | 98.28 | 97.53 |  |  |  |  |
| CCCN1C(=O)C(Cl)=C(Cl)C1(O)Cc1ccc(F)cc1 (stereo not given) | 10.95 | 9.25 | 25.82 |  |  |  |  |
| CC(C)CN1C(=O)C(Cl)=C(Cl)/C1=C/c1ccc(Br)cc1 | 48.29 | 54.45 | 97.93 |  |  |  |  |
| O=C1O/C(=C\c2ccc3c(c2)OCO3)C(Cl)=C1Cl | 87.84 | 94.9 | 53.64 |  |  |  |  |
| COc1cccc(/C=C2\OC(=O)C(Br)=C2c2cc(Cl)ccc2OC)c1 | 48.09 | 97.92 | 97.09 |  |  |  |  |
| COc1ccc(Cl)cc1-c1c(Cc2cccc([N+](=O)[O-])c2)n[nH]c(=O)c1Br | 47.34 | 37.42 | 31.84 |  |  |  |  |
| COc1ccc(Br)cc1C1=C(Br)C(=O)N(CC(C)C)C1(O)Cc1cccc(Cl)c1 (stereo not given) | 78.09 | 98.49 | 92.75 |  |  |  |  |
| COc1ccccc1C1=C(Br)C(=O)O/C1=C\c1ccc(C(F)(F)F)cc1 | 71.31 | 98.85 | 84.46 |  |  |  |  |
| O=C1O/C(=C\c2cccc(Cl)c2)C(Cl)=C1Cl | 86.08 | 99.86 | 62.17 |  |  |  |  |
| COc1ccc(Cl)cc1-c1c(Cc2ccc(C(F)(F)F)cc2)n[nH]c(=O)c1Br | 73.87 | 53.87 | 97.73 |  |  |  |  |
| COc1ccc(C)cc1C1=C(Br)C(=O)N(CC(C)C)/C1=C\c1ccccc1Cl | 61.86 | 20.46 | 77.02 |  |  |  |  |
| O=C1O/C(=C\c2ccc(Cl)cc2)C(Cl)=C1Cl | 48.84 | 0 | 95.81 |  |  |  |  |
| COc1cccc(/C=C2/C(c3cc(Cl)ccc3OC)=C(Br)C(=O)N2CC(C)C)c1 | 25.57 | 42.28 | 38.65 |  |  |  |  |
| COc1ccccc1C1=C(Br)C(=O)N(CC(C)C)/C1=C/c1ccc(C(F)(F)F)cc1 | 84.72 | 75.07 | 88.8 |  |  |  |  |
